Results from patent US20250214976A1, “GPR35 MODULATORS AND USES THEREOF” (Crossignal Therapeutics, Inc., priority 2022, published 2025).

Each molecule was assayed against T1, human GPR35 (Homo sapiens, UniProt Q9HC97) (assay: Luciferase Reporter Assay (YAP responsive element) in HEK293 cells stably transfected with human GPR35). Details: overnight incubation.
T1 construct: expressed in transfected cells; host or cells: HEK293
Assay type: cell-based
Procedure: HEK293 cells stably transfected with human GPR35 were maintained in Dulbecco's Modified Eagle Medium (DMEM) supplemented with 10% FBS and 300 μg/mL Zeocin and 200 μg/mL Hygromycin at 37° C., 10% CO2. On Day 1, cells were plated in poly-D-lysine coated 96-well tissue culture plate in regular growth medium (DMEM/10% FBS/300 μg/mL Zeocin/200 μg/mL Hygromycin. On the next day, luciferase reporter plasmid DNA with YAP responsive element was transfected into cells using lipofectamine 2000 (Invitrogen) following manufacture's protocol. After transfection for 6 hr., cells were treated with testing compounds in fasting DMEM medium (phenol red free, FBS free) at varying compound concentrations ranging from 10 μM to […] in a 3-fold serial diluted fashion. After an overnight incubation, the luciferase activities were measured with SteadyLite Plus Kit (PerkinElmer) according to manufacturer's protocol. IC50 was determined by fitting the dose-response data to a four-parameter logistic curve using GraphPad Prism.
The symbol “+” indicates IC50 is greater than […]. “++” indicates IC50>100 nM but ≤[…]. “+++” indicates IC50≤100 nM.

T1 sequence (Q9HC97 whole entry): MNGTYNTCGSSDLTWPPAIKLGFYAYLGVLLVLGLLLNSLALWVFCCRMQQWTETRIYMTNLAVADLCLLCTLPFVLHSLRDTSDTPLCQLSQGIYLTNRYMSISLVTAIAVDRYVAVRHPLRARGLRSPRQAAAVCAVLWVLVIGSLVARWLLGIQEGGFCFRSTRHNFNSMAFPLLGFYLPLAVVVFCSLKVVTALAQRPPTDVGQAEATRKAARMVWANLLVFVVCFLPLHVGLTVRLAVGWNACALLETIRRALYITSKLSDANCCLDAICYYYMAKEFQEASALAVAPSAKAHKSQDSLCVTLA

Row | Structure (SMILES) | IC50 [µM]
1 | O=C(Nc1ccc(OCc2ccc(F)cc2Cl)cc1)c1coc2cc(Oc3nnn[nH]3)ccc12 [Compound 1-29, 6-((1H-tetrazol-5-yl)oxy)-N-(4-((2-chloro-4-fluorobenzyl)oxy)phenyl)benzofuran-3-carboxamide] | > 1
2 | O=C(Nc1ccc(OC2CC(F)(F)C2)c(F)c1)c1coc2cc(-c3nnn[nH]3)c(F)cc12 [Compound 1-27, N-(4-(3,3-difluorocyclobutoxy)-3-fluorophenyl)-5-fluoro-6-(1H-tetrazol-5-yl)benzofuran-3-carboxamide] | 0.1 to 1
3 | O=C(Nc1ccc(OCc2ccc(F)cc2Cl)c(F)c1)c1coc2c(-c3nnn[nH]3)cccc12 [Compound 1-11, N-(4-((2-chloro-4-fluorobenzyl)oxy)-3-fluorophenyl)-7-(1H-tetrazol-5-yl)benzofuran-3-carboxamide] | > 1
4 | O=C(Nc1ccc(OCc2ccc(F)cc2Cl)c(F)c1)c1coc2cc(OCc3nnn[nH]3)ccc12 [Compound 1-5, 6-((1H-tetrazol-5-yl)methoxy)-N-(4-((2-chloro-4-fluorobenzyl)oxy)-3-fluorophenyl)benzofuran-3-carboxamide] | > 1
5 | O=C(Nc1ccc(F)c(F)c1OC1CCCC1)c1coc2cc(-c3nnn[nH]3)ccc12 [Compound 1-12, N-(2-(cyclopentyloxy)-3,4-difluorophenyl)-6-(1H-tetrazol-5-yl)benzofuran-3-carboxamide] | > 1
6 | O=C(O)c1ccc2c(C(=O)Nc3ccc(OC4CCC4)c(F)c3)coc2c1 [Compound 1-3, 3-((4-cyclobutoxy-3-fluorophenyl)carbamoyl)benzofuran-6-carboxylic acid] | > 1
7 | O=C(Nc1ccc(OCc2ccc(F)cn2)cc1)c1coc2cc(-c3nnn[nH]3)c(F)cc12 [Compound 1-47, 5-fluoro-N-(4-((5-fluoropyridin-2-yl)methoxy)phenyl)-6-(1H-tetrazol-5-yl)benzofuran-3-carboxamide] | 0.1 to 1
8 | O=C(Nc1ccc(OCc2cc(F)c(Cl)cc2F)cc1)c1coc2cc(-c3nnn[nH]3)c(F)cc12 [Compound 1-55, N-(4-((4-chloro-2,5-difluorobenzyl)oxy)phenyl)-5-fluoro-6-(1H-tetrazol-5-yl)benzofuran-3-carboxamide] | 0.1 to 1
9 | NC(=O)c1cc2occ(C(=O)Nc3ccc(OCc4ccc(F)cc4Cl)cc3)c2cc1F [Compound 1-23, N3-(4-((2-chloro-4-fluorobenzyl)oxy)phenyl)-5-fluorobenzofuran-3,6-dicarboxamide] | > 1
10 | O=C(Nc1ccc(OCc2ccc(F)cc2Cl)c(F)c1)c1coc2cc(-c3nnn[nH]3)ccc12 [Compound 1-6, N-(4-((2-chloro-4-fluorobenzyl)oxy)-3-fluorophenyl)-6-(1H-tetrazol-5-yl)benzofuran-3-carboxamide] | 0.1 to 1
11 | O=C(Nc1ccc(O[C@H]2CCOC2)c(F)c1)c1coc2cc(-c3nnn[nH]3)c(F)cc12 [Compound 1-21, (S)-5-fluoro-N-(3-fluoro-4-((tetrahydrofuran-3-yl)oxy)phenyl)-6-(1H-tetrazol-5-yl)benzofuran-3-carboxamide] | 0.1 to 1
12 | O=C(Nc1ccc(OCc2cccc(F)c2Cl)cc1)c1coc2cc(-c3nnn[nH]3)c(F)cc12 [Compound 1-44, N-(4-((2-chloro-3-fluorobenzyl)oxy)phenyl)-5-fluoro-6-(1H-tetrazol-5-yl)benzofuran-3-carboxamide] | 0.1 to 1
13 | O=C(Nc1ccc(N2CC3C(C2)C3(F)F)c(F)c1)c1coc2cc(-c3nnn[nH]3)c(F)cc12 (centres unmarked) [Compound 1-42, N-(4-(6,6-difluoro-3-azabicyclo[3.1.0]hexan-3-yl)-3-fluorophenyl)-5-fluoro-6-(1H-tetrazol-5-yl)benzofuran-3-carboxamide] | 0.1 to 1
14 | O=C(Nc1ccc(O[C@@H]2CCOC2)c(F)c1)c1coc2cc(-c3nnn[nH]3)c(F)cc12 [Compound 1-22, (R)-5-fluoro-N-(3-fluoro-4-((tetrahydrofuran-3-yl)oxy)phenyl)-6-(1H-tetrazol-5-yl)benzofuran-3-carboxamide] | > 1
15 | O=C(Nc1ccc(OC2CCC2)c(F)c1)c1coc2cc(OCc3nnn[nH]3)ccc12 [Compound 1-4, 6-((1H-tetrazol-5-yl)methoxy)-N-(4-cyclobutoxy-3-fluorophenyl)benzofuran-3-carboxamide] | > 1
16 | C[C@@H](Oc1ccc(NC(=O)c2coc3cc(-c4nnn[nH]4)c(F)cc23)cc1)c1ccc(F)cc1Cl (single isomer, unassigned) [Compound 1-26] | > 1
17 | C[C@H](Oc1ccc(NC(=O)c2coc3cc(-c4nnn[nH]4)c(F)cc23)cc1)c1ccc(F)cc1Cl (single isomer, unassigned) [Compound 1-25] | > 1
18 | O=C(Nc1ccc(OCc2cc(Cl)c(Cl)s2)cc1)c1coc2cc(-c3nnn[nH]3)c(F)cc12 [Compound 1-57, N-(4-((4,5-dichlorothiophen-2-yl)methoxy)phenyl)-5-fluoro-6-(1H-tetrazol-5-yl)benzofuran-3-carboxamide] | 0.1 to 1
19 | N#Cc1cc(F)ccc1COc1ccc(NC(=O)c2coc3cc(-c4nnn[nH]4)c(F)cc23)cc1 [Compound 1-48, N-(4-((2-cyano-4-fluorobenzyl)oxy)phenyl)-5-fluoro-6-(1H-tetrazol-5-yl)benzofuran-3-carboxamide] | 0.1 to 1
20 | O=C(Nc1ccc(OCc2ccc(F)cc2Cl)cc1)c1coc2cc(Oc3nnn[nH]3)c(F)cc12 [Compound 1-39, 6-((1H-tetrazol-5-yl)oxy)-N-(4-((2-chloro-4-fluorobenzyl)oxy)phenyl)-5-fluorobenzofuran-3-carboxamide] | 0.1 to 1
21 | N#Cc1cc(Cl)ccc1COc1ccc(NC(=O)c2coc3cc(-c4nnn[nH]4)c(F)cc23)cc1 [Compound 1-52, N-(4-((4-chloro-2-cyanobenzyl)oxy)phenyl)-5-fluoro-6-(1H-tetrazol-5-yl)benzofuran-3-carboxamide] | 0.1 to 1

Other lines, results leading:

Row | IC50 [µM] | Structure (SMILES)
22 | 0.1 to 1 | O=C(Nc1ccc(OCc2c(F)cc(Cl)cc2F)cc1)c1coc2cc(-c3nnn[nH]3)c(F)cc12 [Compound 1-54, N-(4-((4-chloro-2,6-difluorobenzyl)oxy)phenyl)-5-fluoro-6-(1H-tetrazol-5-yl)benzofuran-3-carboxamide]
23 | ≤ 0.1 | O=C(Nc1ccc(N2CCC(F)(F)C2)c(F)c1)c1coc2cc(-c3nnn[nH]3)c(F)cc12 [Compound 1-34, N-(4-(3,3-difluoropyrrolidin-1-yl)-3-fluorophenyl)-5-fluoro-6-(1H-tetrazol-5-yl)benzofuran-3-carboxamide]
24 | 0.1 to 1 | O=C(Nc1ccc(OC(CF)CF)c(F)c1)c1coc2cc(-c3nnn[nH]3)c(F)cc12 [Compound 1-35, N-(4-((1,3-difluoropropan-2-yl)oxy)-3-fluorophenyl)-5-fluoro-6-(1H-tetrazol-5-yl)benzofuran-3-carboxamide]
25 | 0.1 to 1 | C[C@@H](Oc1ccc(NC(=O)c2coc3cc(-c4nnn[nH]4)c(F)cc23)cc1F)C(F)(F)F (single isomer, unassigned) [Compound 1-31]
26 | ≤ 0.1 | O=C(Nc1cc(F)c(OC2CCCC2)cc1F)c1coc2cc(-c3nnn[nH]3)ccc12 [Compound 1-10, N-(4-(cyclopentyloxy)-2,5-difluorophenyl)-6-(1H-tetrazol-5-yl)benzofuran-3-carboxamide]
27 | ≤ 0.1 | O=C(Nc1ccc(C2CCCC2)c(F)c1)c1csc2cc(-c3nnn[nH]3)ccc12 [Compound 1-58, N-(4-cyclopentyl-3-fluorophenyl)-6-(1H-tetrazol-5-yl)benzo[b]thiophene-3-carboxamide]
28 | ≤ 0.1 | O=C(Nc1ccc(C2CCCC2)c(F)c1)c1coc2cc(-c3nnn[nH]3)ccc12 [Compound 1-14, N-(4-cyclopentyl-3-fluorophenyl)-6-(1H-tetrazol-5-yl)benzofuran-3-carboxamide]
29 | ≤ 0.1 | CC1(Oc2ccc(NC(=O)c3coc4cc(-c5nnn[nH]5)ccc34)cc2F)CC1 [Compound 1-15, N-(3-fluoro-4-(1-methylcyclopropoxy)phenyl)-6-(1H-tetrazol-5-yl)benzofuran-3-carboxamide]
30 | ≤ 0.1 | O=C(Nc1ccc(OC2CCCC2)c(F)c1)c1coc2cc(-c3nnn[nH]3)c(F)cc12 [Compound 1-20, N-(4-(cyclopentyloxy)-3-fluorophenyl)-5-fluoro-6-(1H-tetrazol-5-yl)benzofuran-3-carboxamide]
31 | ≤ 0.1 | C[C@H](Oc1ccc(NC(=O)c2coc3cc(-c4nnn[nH]4)c(F)cc23)cc1F)C(F)(F)F (single isomer, unassigned) [Compound 1-30]
32 | ≤ 0.1 | O=C(Nc1ccc(OCc2ccc(F)cc2Cl)cc1)c1coc2cc(-c3nnn[nH]3)c(F)cc12 [Compound 1-18, N-(4-((2-chloro-4-fluorobenzyl)oxy)phenyl)-5-fluoro-6-(1H-tetrazol-5-yl)benzofuran-3-carboxamide]
33 | ≤ 0.1 | O=C(Nc1ccc(OCc2ccc(F)c(Cl)c2)cc1)c1coc2cc(-c3nnn[nH]3)c(F)cc12 [Compound 1-43, N-(4-((3-chloro-4-fluorobenzyl)oxy)phenyl)-5-fluoro-6-(1H-tetrazol-5-yl)benzofuran-3-carboxamide]
34 | ≤ 0.1 | O=C(Nc1ccc(OCc2ccc(Cl)cc2F)cc1)c1coc2cc(-c3nnn[nH]3)c(F)cc12 [Compound 1-41, N-(4-((4-chloro-2-fluorobenzyl)oxy)phenyl)-5-fluoro-6-(1H-tetrazol-5-yl)benzofuran-3-carboxamide]
35 | ≤ 0.1 | O=C(Nc1ccc(O[C@H]2CCC(F)(F)C2)c(F)c1)c1coc2cc(-c3nnn[nH]3)c(F)cc12 (single isomer, unassigned) [Compound 1-36]
